According to paper PMC9922277, “Repositioning Lomitapide to block ZDHHC5-dependant palmitoylation on SSTR5 leads to anti-proliferation effect in preclinical pancreatic cancer models” (Cell Death Discovery, 2023):
Ends that are not written are not given here.

What was measured:
[1] = biological target: T1, ZDHHC5 (Homo sapiens, UniProt Q9C0B5); experiment: microscale thermophoresis (MST) with labeled ZDHHC5 fragment; format: binding
T1 construct: protein fragment 60-148aa expressed using Yeast

[2] = biological target: T2, ZDHHC5 protein fragment (60-148aa), ZDHHC5's substrate binding domain (UniProt Q9C0B5 60-148, RED-NHS 2nd Generation dye label where it was the labeled partner (assay without Lomitapide); unlabeled in the assay with Lomitapide); experiment: MST; 20 nM labeled ZDHHC5 mixed with unlabeled SSTR5 in 16 serial concentrations (maximum 200 nM), RT, 1.05*PBS; Monolith NT.115, LED 20%, medium MST power; details: both partners purified
T2 construct: also called ZDHHC5 substrate domain; source: expressed using Yeast; labeled and purified with the labeling kit
T2 sequence (Q9C0B5 60-148): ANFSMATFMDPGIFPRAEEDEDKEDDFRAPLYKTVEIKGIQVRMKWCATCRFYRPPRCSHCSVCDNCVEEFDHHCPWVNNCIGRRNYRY

[3] = biological target: T2, ZDHHC5 protein fragment (60-148aa), …; experiment: MST; in the presence of 25 uM Lomitapide: 20 nM labeled SSTR5 and 25 uM Lomitapide mixed with unlabeled ZDHHC5 in 16 serial concentrations (maximum 200 nM), RT, 1.05*PBS; details: both partners purified

T1 sequence (Q9C0B5 60-148): as above

Q: For `O=C(NC1CCN(CCCCC2(C(=O)NCC(F)(F)F)c3ccccc3-c3ccccc32)CC1)c1ccccc1-c1ccc(C(F)(F)F)cc1` [Lomitapide], which Kd [1] is on record?
A: 509 nM

Q: With `CCCCCCCCCCCCCCCC(=O)O` [palmitic acid] as the molecule, how does the Kd [1] read?
A: 88 nM

B1: SSTR5 protein fragment (cytoplasmic tail 307-364aa) (domain or fragment, UniProt P35346 307-364, looked up)
chain: LSDNFRQSFQKVLCLRKGSGAKDADATEPRPDRIRQQQEATPPAHRAAANGLMQTSKL
modifications: also: RED-NHS dye label in the labeled-partner assay, site not given here
notes: also called SSTR5 (307-362 aa); SSTR5 cytoplasmic tail
Q: With B1 as the molecule, how does the Kd [2] read?
A: 2.06 nM

Q: And the Kd [3]?
A: 22.5 nM
